pEC50: −log10 of the molar value. Read-outs that look alike come from different tables or passages of the source.
Columns and labels:
MM2MT = experiment: cells; conditions: Mus musculus, 336 h, GCV 14 days
Experimental: (§1) Each vector was then stably transfected into either MM3MG cells (ATCC No.CRL6376, a normal mouse mammary line) or MM2MT cells (ATCC No. CRL6373, a mouse mammary carcinoma line). Unless otherwise stated, all cell lines were purchased from the American Type Culture Collection (“ATCC”), Manassas, Va. To overexpress eIF4E (referred to as eIF4E-S, for “sense”), the eIF4E cDNA was cloned into KpnI and NotI sites of the pREP7 episomal vector (Invitrogen, Carlsbad, Calif.). To reduce the eIF4E expression (referred to as eIF4E-AS, for “antisense”), an antisense eIF4E construct was subcloned into the pREP7 vector as described in A. De Benedetti et al., “Expression of antisense RNA against initiation factor eIF-4E mRNA in HeLa cells results in lengthened cell division times, diminished translation rates, and reduced levels of both eIF-4E and the P220 component of eIF-4F,” Mol. Cell. Biol., vol. 11, pp. 5435-5445 (1991).
(§2) All transfections were performed with the GenePORTER reagent (Gene Therapy Systems, San Diego, Calif.). Stable cell lines were obtained by selection with G418 for the BK constructs, and Hygromycin B for the pREP7 vectors.

MM3MG = experiment: cells; conditions: for pEC50: Mus musculus, MM3MG, 336 h, GCV 14 days
Experimental: as §1, §2

MM2MT tumors = experiment: Tumor ablation, MM2MT mammary fat pad tumors (about 40 mm^3) in athymic mice; assay type: in vivo, BALB/c athymic nu/nu mice; conditions: GCV administered alone (data not shown)
Experimental: 10^6 MM2MT cells were suspended in 0.1 ml serum and antibiotic-free DMEM medium and injected subcutaneously into the mammary fat pad. Tumor latency was determined as the time necessary for the tumors to grow to 0.5 cm (largest diameter). Tumor doubling times were determined by daily measuring the smallest (d) and the largest (D) diameters with calipers, and estimating the volume using the formula, V=D×d^2×0.52. The reported numbers are the mean and standard deviation of the tumor volumes for each group.
When the tumor volumes were approximately 40 mm^3, the mice were randomly separated into two groups, and either the BK-TK or the BK-UTK vectors were injected as a liposomal complex near the tumor. To make the liposomal complex for transfection of primary tumors, 10 μg of endotoxin-free purified (QIAGEN, Inc., Valencia, Calif.) plasmid DNA was diluted in 50 μl medium without serum or antibiotics. In a separate tube, 50 μl of GenePORTER reagent (Gene Therapy Systems, San Diego, Calif.) was mixed with 50 μl serum and antibiotic-free medium. The two tubes were then combined, briefly vortexed, and allowed to incubate at room temperature for 20 minutes, after which the resulting liposome complex was injected between the tumor and the skin of the mouse.
One of the 6 mice in each group had no palpable tumor remaining at the end of the 10-day treatment.

MCF7 = conditions: GCV 14 days
MDA-435S = conditions: GCV 14 days
MCF-10A = conditions: GCV 14 days
MDA-231 = conditions: for ED50: GCV 14 days

Question: What does the source list for Nc1nc(O)c2ncn(COC(CO)CO)c2n1 [GCV, Ganciclovir]?
Answer: pEC50 (MM2MT; read-out: ED50, MM2MT untransfected cells): 4.02; pEC50 (MM2MT; read-out: ED50, MM2MT-TK cells): 7.02; pEC50 (MM2MT; read-out: ED50, MM2MT-TK/4E-AS cells): 6.82; pEC50 (MM2MT; read-out: ED50, MM2MT-UTK cells): 6.30; pEC50 (MM2MT; read-out: ED50, MM2MT-UTK/4E-AS cells): 4.26; GCV concentration to which cells were sensitive (dose-response curve) (MM3MG; MM3MG-TK (normal) cells, 14 days): 0.1 µM; pEC50 (MM3MG; read-out: ED50, MM3MG untransfected cells, concentration that kills 50% of the cells): 3.70; pEC50 (MM3MG; read-out: ED50, MM3MG-TK cells): 6.52; pEC50 (MM3MG; read-out: ED50, MM3MG-UTK cells): 4.12; pEC50 (MM3MG; read-out: ED50, MM3MG-UTK/4E-AS cells (so in the source)): 6.05; GCV concentration at which cells were non-specifically inhibited (MM3MG; untransfected MM3MG cells, 14 days): 200 µM; effect on the growth of MM2MT tumors (MM2MT tumors): no effect; ED50 (MCF7; MCF7-TK cells): 20 µM; ED50 (MCF7; MCF7-UTK cells): 10 µM; ED50 (MCF7; MCF7 untransfected cells): 6000 µM; ED50 (MDA-435S; MDA-435S untransfected cells): 350 µM; ED50 (MDA-435S; MDA-435S-TK cells): 15 µM; ED50 (MDA-435S; MDA-435S-UTK cells): 15 µM; ED50 (MCF-10A; MCF-10A untransfected cells): 6000 µM; ED50 (MCF-10A; MCF-10A-TK cells): 300 µM; ED50 (MCF-10A; MCF-10A-UTK cells): 5500 µM; GCV concentration of non-specific toxicity (MDA-231; MDA-231-TK and MDA-231-UTK cells, otherwise insensitive to GCV): 5 mM; ED50 (MDA-231; MDA-231-TK cells): 4000 µM; ED50 (MDA-231; MDA-231-UTK cells): 4000 µM; ED50 (MDA-231; MDA-231 untransfected cells): 6000 µM
